Test results taken from paper PMC8234864, “Early Effects of the Soluble Amyloid β25-35 Peptide in Rat Cortical Neurons: Modulation of Signal Transduction Mediated by Adenosine and Group I Metabotropic Glutamate Receptors” (International Journal of Molecular Sciences, 2021).
Where “and” joins values, the source holds several entries; their conditions need not be identical. Equal entries are not always repeated. Where no end group is shown, it is not given here.

Tests used:
A2AR = target: T1, A2AR (Rattus norvegicus, UniProt P30543); assay: [3H]ZM241385 radioligand binding in intact cortical neurons; settings: for A2AR Bmax: [3H]ZM241385 saturation binding
T1 construct: endogenous in cells; host or cells: rat primary cortical neurons (intact)
Protocol: Concerning adenosine receptor assessment by radioligand binding, [^3H]DPCPX and [^3H]ZM241385 were employed as selective A1R and A2AR radioligands, as described previously, to determine A1R and A2AR density, respectively. Briefly, primary cortical neurons growth in 24-well plates were washed with serum-free DMEM and pre-incubated with 2 U/mL ADA at 37 °C for 30 min to remove endogenous adenosine. After incubation, the radioligands [^3H]DPCPX (1–20 nM) or [^3H] ZM241385 (1–20 nM) were added in the absence or the presence of CPA in a concentration 10^4 times higher than the radioligand, to obtain non-specific binding to A1R, or 5 mM theophylline, to obtain non-specific binding to A2AR. A specific adenosine uptake inhibitor (1 µM dipyridamole) was added to the reaction mixture to block adenosine receptor ligands’ binding to adenosine transporters. After incubation at 25 °C for 2 h in a final volume of 250 µL, cells were washed with 500 µL of ice-cold buffer and disrupted with 0.2% SDS. Well contents were then transferred to vials and a scintillation liquid mixture was added to measure radioactivity. Two wells from each plate were reserved for protein concentration measurement.

rat cortical neurons = assay: MTT reduction cell viability assay after Aβ exposure; format: cell-based; settings: for decrease in cell viability: MTT reduction, vs control
Protocol: Aβ25-35 and Aβ1-42 were water-soluble peptides, however, while Aβ25-35, the functional domain of Aβ required for both neurotrophic and neurotoxic effects, was directly added to neuronal cultures after its solubilisation, Aβ1-42 was solved in water and maintained for 24 h at 37 °C before its addition to promote its aggregation. To test the effect of mGluR ligands on cell death induced by Aβ in neuronal cultures, these drugs were added 30 min before the addition of Aβ25-35 and maintained during Aβ exposure. Unless otherwise indicated, all chemicals were dissolved in water.
Cell viability was determined on 96-well plates using an in vitro toxicology assay kit based on a mitochondrial-dependent reaction that transforms 3-[4,5-dimetylthiazol-2-yl]-2,5-diphenyltetrazolium bromide (MTT) into formazan crystals. Briefly, at the end of treatments, cells were incubated in culture medium with MTT solution (5 mg/mL) at 37 °C for 3 h. After incubation, MTT solubilization solution (10% Triton X-100 plus 0.1 M HCl in isopropanol anhydrous) was added into the wells to dissolve formazan crystals and the absorbance of each well was measured at 570 nm and 690 nm, according to the manufacturer’s instructions.

[1] = tested on: A2BR (ADORA2B) gene expression; assay: A2BR gene expression by real-time PCR; format: cell-based, rat; settings: 25 µM, 24 or 48 h
Protocol: Total RNA was extracted using an ABI 6100 Nucleic Acid PrepStation according to the manufacturer’s protocol (Applied Biosystems Inc., Foster City, CA, USA). Total RNA from cells was isolated and stored at −80 °C. The quality of isolated RNA was estimated by the ratio A260/A280 and was in the range of 1.9–2.1. RNA integrity was evaluated by agarose gel electrophoresis according to MIQE guidelines using the “bleach gel” method. RNA concentrations were determined from the A260. One microgram of total RNA was reverse transcribed using Applied Biosystems High-Capacity cDNA Archive Kit.
To assess relative gene expression in neurons, quantitative real-time RT-PCR analysis was performed with an Applied Biosystems Prism 7500 Fast Sequence Detection System using TaqMan® universal PCR master mix according to the manufacturer’s specifications. […] Levels of RNA expression were determined using the 7500 Fast System SDS software version 1.3.1 (Applied Biosystems) according to the 2^−ΔΔCt method. […] The results from three independent repeat assays, performed in different plates each using different cDNA’s from the cultures analyzed, were averaged to produce a single mean quantity value for each mRNA.

[2] = tested on: Group I mGluR/PLC signalling pathway; assay: Phospholipase C activity (IP3 accumulation), basal and DHPG-stimulated; format: cell-based, rat
Protocol: This method was previously reported and is divided into two well-defined steps: IP3 accumulation: culture medium was discharged, and cells were washed twice with DMEM containing 20 mM HEPES, pH 7.4. After 20 min at 37 °C, different ligands were added to cells for 10 min at 37 °C to analyse their effect on PLC activity in a final reaction volume of 300 μL. The enzymatic reaction was stopped and cells lysed by adding 50 μL 2.8 M perchloric acid and placing plates on ice for 30 min. The medium was neutralized with 70 μ[…] Tris-HCl, 2 M KOH, and 60 mM EGTA, transferred to Eppendorf tubes and centrifuged at 12,000× g for 10 min. The supernatant was then collected to determine the IP3 level. IP3 level determination: IP3 levels in cells were determined as previously reported by Palmer and modified by […] [100]. Incubation of [^3H]IP3 (0.2 pmol; 3000-5000 cpm) in assay buffer (100 mM Tris-HCl, 4 mM EDTA, 4 mM EGTA, 4 mg/mL BSA, pH 9.0), binding protein (500-600 μg), and 25-50 μL of supernatant obtained from IP3 accumulation assay was carried out. Samples were incubated at 4 °C for 60 min and centrifuged at 12,000× g for 10 min. Pellets were suspended in 100 μL 0.2% SDS and transferred to scintillation vials to measure radioactivity. A standard curve was made with known [^3H]IP3 concentrations (0.25-10 μM). Nonspecific binding was determined in the presence of 10 μM unlabeled IP3. Binding protein was obtained from bovine suprarenal capsules according to Palmer's protocol.

[3] = neurons exposed to 25 µM for 24 h
[4] = neurons exposed to 25 µM for 48 h

T1 sequence (P30543 whole entry): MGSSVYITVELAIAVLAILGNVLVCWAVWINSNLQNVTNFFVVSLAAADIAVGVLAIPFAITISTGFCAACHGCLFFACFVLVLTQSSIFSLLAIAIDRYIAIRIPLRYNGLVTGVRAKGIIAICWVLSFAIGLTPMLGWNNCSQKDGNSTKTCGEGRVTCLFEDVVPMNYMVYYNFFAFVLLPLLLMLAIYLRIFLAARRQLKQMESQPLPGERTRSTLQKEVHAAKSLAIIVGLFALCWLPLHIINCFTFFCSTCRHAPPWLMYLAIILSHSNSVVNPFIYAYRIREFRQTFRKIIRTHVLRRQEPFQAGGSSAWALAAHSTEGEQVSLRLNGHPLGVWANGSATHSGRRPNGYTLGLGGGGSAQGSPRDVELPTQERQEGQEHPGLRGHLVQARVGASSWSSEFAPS

With GSNKGAIIGLM [Aβ25-35] the “A2AR affinity (1/KD), change vs control” value (A2AR; 25 µM, 24 or 48 h) was “no significant variation”, the “Total A2AR density (Bmax), change vs control” value (A2AR; 25 µM, 24 h) was “not altered” and the “Total A2AR density (Bmax) increase over control value” (A2AR; 25 µM, 48 h) was 80%. The Kd (A2AR; [3]) was 10.3 ± 1.22 nM, the “A2AR Bmax” value (A2AR; [3]) was 557 ± 56 fmol/mg prot and the Kd (A2AR; [4]) was 14 ± 4.69 nM. For the same sequence, the “A2AR Bmax” value (A2AR; [4]) was 1178 ± 43 fmol/mg prot, the “decrease in cell viability” value (rat cortical neurons; 25 µM, 24 h) was roughly 40% and the cell viability (rat cortical neurons; 25 µM, 48 h, MTT) was “decrease in cell viability”. For the same sequence, the “decrease in cell viability” value (rat cortical neurons; 50 µM, 24 h) was roughly 40%, the “cell viability, concentration dependence” value (rat cortical neurons; 1, 10, 25 and 50 µM, 24 h, MTT) was “concentration-dependent decrease in cell viability” and the A2BR gene expression [1] was “significantly increased”. For the same sequence, the “decrease in DHPG-stimulated PLC activity” value ([2]; 25 µM, 24 h, 30 µM DHPG for 10 min) was 13% and the “basal PLC activity” value ([2]; neurons exposed to 25 µM for 24 h, unstimulated, absence of DHPG) was 17.61 ± 4.85 pmol/mg/min and 17.6 ± 4.8 pmol/mg/min.
